Legend:
CaTMPK [1] = test: NADH coupled enzyme activity assay (pyruvate kinase/lactate dehydrogenase) of CaTMPK; format: biochemical, Candida albicans; conditions: substance as phosphate acceptor, NADH decrease at 340 nm, pH 7.4
Method: The NADH coupled enzyme activity assay (Blondin, C., et al. (1994). Improved spectrophotometric assay of nucleoside monophosphate kinase activity using the pyruvate kinase/lactate dehydrogenase coupling system. Anal. Biochem 220, 219-221) is a well established assay to monitor the enzyme activity of thymidylate kinases. The assay was used to measure the activity of CaTMPK with the different phosphate acceptors (dTMP, AZTMP or dGMP). The reaction mixture consisted of 50 mM Tris-HCl (pH 7.4), 50 mM KCl, 10 mM MgCl2, 0.5 mM phosphoenolpyruvate, 0.15 mM NADH, 5 units/mL each of pyruvate kinase and lactate dehydrogenase. The reaction was initiated by adding the enzyme and the reaction rate was measured by monitoring the decrease of NADH concentration at 340 nm.

CaTMPK [2] = test: One-dimensional proton NMR activity assay of CaTMPK; format: biochemical, Candida albicans; conditions: substance as phosphate acceptor (1 mM), 1 mM ATP as phosphate donor, pH 7.4
Source text: Three different methods to assay for TMK activity have been reported in the literature. The first method uses isotope labeled [^14C] dTMP as substrate and utilizes the separation of dTMP and dTDP by thin-layer chromatography (TLC). The next method is a coupled enzymatic assay which involves the use of pyruvate kinase and lactate dehydrogenase to couple the production of ADP (a product of TMK activity) to the oxidation of NADH to NAD^+ which can be monitored spectrophotometrically at 340 nm. The third protocol involves the use of luciferin/luciferase to measure the concentration of unreacted ATP, or the amount to ADP in the TMK reaction mixture. All of these assays have inherent problems, ranging from the use of radioactivity to the potential inhibition of the coupling enzymes. Consequently, a simple one step assay to monitor the conversion of TMP to TDP was developed. The assay relies on the difference in the pyrimidine H6 proton chemical shifts of TMP and TDP (see FIG. 4). […] The new assay of the present invention also allows for the near-continuous measurement of product production, while current high-throughput assays are quench-stop type assays.
One-dimensional proton (^1H) NMR was used to monitor the activity of CaTMPK. The assay depends on the change in the chemical shift of the H6 proton (dTMP, AZTMP) or the H8 proton (dGMP) of the nucleobases upon the addition of the second phosphate group. The assay reaction included 50 mM Tris-HCl (pH 7.4), 50 mM KCl, 10 mM MgCl2, 1 mM ATP as the phosphate donor, 1 mM phosphate acceptor (dTMP, AZTMP or dGMP) and 10% D20. The reaction was initiated by the addition of CaTMPK to the reaction mix. A series of ^1H NMR spectra were acquired and the area (or height) of the proton line corresponding to the monophosphate forms of the acceptor molecule was plotted against time to calculate the initial rates of catalysis for each of the three substrates.

Row | SMILES | kcat, coupled enzyme assay (CaTMPK [1]) [min⁻¹] | kcat, nmr assay (CaTMPK [2]) [min⁻¹]
1 | Cc1cn([C@H]2C[C@H](N=[N+]=[N-])[C@@H](COP(=O)(O)O)O2)c(=O)[nH]c1=O [AZTMP, azidothymidine monophosphate] | 18.3 | 32
2 | Nc1nc2c(ncn2[C@H]2C[C@H](O)[C@@H](COP(=O)(O)O)O2)c(=O)[nH]1 [dGMP] | 0.5 | 0.37
3 | Cc1cn([C@H]2C[C@H](O)[C@@H](COP(=O)(O)O)O2)c(=O)[nH]c1=O [dTMP, deoxythymidine monophosphate] | 411 | 500

From patent US20170306388A1, “Method for the Identification of Inhibitors and Activators of Thymidylate Kinases” (Carnegie Mellon University, priority 2016, published 2017)
